Data reported in PubChem BioAssay AID624344 (Sanford-Burnham Center for Chemical Genomics, 2012).
Activity calls are given as the source filed them. The rule behind the calls is not given here.

Assays:
[1] = inhibitors of PAF-induced NFkB signaling in CF airway cells, dose response, cell-based, uHTS hits, panel, cytotoxicity readout (AID 624344); conditions: CF bronchial epithelial cells, PAF-induced NFkB reporter inhibition; with PAF, mean of runs
[2] = test system: Cytotoxicity; assay: as above; conditions: CF bronchial epithelial cells, mean of runs

Compound | IC50 [1] | IC50 [2]
COC(=O)c1ccc(-c2ccc(OC)c([C@H]3[C@H]4C=CC[C@@H](C)[C@@H]4C(=O)N3Cc3ccccc3)c2)cc1 | 2.4 µM | 29.8 µM
CC(=O)c1c(O)cc(O)c(C(C)=O)c1O | 5.34 µM | 5.8 µM
COc1ccc(-c2cn[nH]c2-c2ccc(OCc3ccccc3)cc2O)cc1 | 3.7 µM | 16.7 µM
ON=C1c2ccccc2-c2cc(Br)ccc21 | 1.87 µM | 41.4 µM
Cc1ccc(N=Cc2cc3c(cc2O)OC(N)=C(C#N)C3c2ccccc2)cc1 (stereo unspecified) | 2.07 µM | 53.6 µM (inactive)
Cc1nc(N)c(C#N)c(-c2cccnc2)c1-c1ccccc1 | 4.45 µM | 62.9 µM (inactive)
C[C@H]1CCCC(=O)CCC/C=C/c2cc(O)cc(O)c2C(=O)O1 | 14 µM | 25.9 µM
CNc1ccc2ncc(-c3ccc(OC)c(OC)c3)n2n1 | 0.535 µM | 15.8 µM
COc1cccc(Nc2ncnc3ccc(Br)cc23)c1 | 1.08 µM | 9.61 µM
C[C@H](CO)N1C[C@H](C)[C@@H](CN(C)C(=O)Nc2ccc3c(c2)OCO3)Oc2c(NC(=O)Nc3ccc(C(F)(F)F)cc3)cccc2C1=O | 3.05 µM | 5.77 µM
c1ccc(-c2nc3nonc3nc2-c2ccccc2)cc1 | 12.2 µM | 45.4 µM
CC1Sc2ccc(Cl)cc2-c2nc(N)ncc21 (stereo unspecified) | 6.98 µM | 75 µM (inactive)
C[C@@H]1CN([C@H](C)CO)C(=O)c2cc(NC(=O)Nc3ccc(C(F)(F)F)cc3)ccc2O[C@H]1CN(C)S(=O)(=O)c1ccccc1 | 9.21 µM | 77.2 µM (inactive)
O=[N+]([O-])c1cc([N+](=O)[O-])c2oc(-c3ccccc3)c(Br)c2c1O | 2.3 µM | 4.56 µM
COc1cccc(/C=N/n2c(C3CCCCC3)n[nH]c2=S)c1 | 3.97 µM | 33.7 µM
COc1ccc(OC)c(N(CCN2C(=O)c3ccccc3C2=O)C(=O)CCl)c1 | 4.03 µM | 4.33 µM
COc1ccc(-c2oc3ccc(-c4ccc(OC)nc4)cc3c2C#CC2(O)CCCCC2)cc1 | 6.05 µM | 14.4 µM
CC(NC(=O)OCc1ccccc1)C(=O)Oc1cc2oc(=O)cc(-c3ccccc3)c2cc1Cl (stereo unspecified) | 1.34 µM | 27.9 µM
CC(=O)Nc1ccc(-c2ccnc3c2CC(C(=O)NCc2ccco2)O3)cc1 (stereo unspecified) | inactive | > 79 µM (inactive)
COc1cccc(-c2cnc3c(NC=O)cc(-c4ccc(OC)cc4OC)cn23)c1 | 14.2 µM | 26 µM
O=S1(=O)CCC(NC(=S)SCCOc2ccccc2)C1 (stereo unspecified) | 4.58 µM | 20.1 µM

Compound | IC50 [1] | IC50 [2]
COc1cc(C(=O)Nc2nnc(-c3sccc3C)s2)cc(OC)c1OC | inactive | 4.33 µM
Cc1ccc(S(=O)(=O)N2[C@@H](c3ccc(C(C)(C)C)cc3)C(C(=O)O)=CC[C@H]2c2ccc(C(C)C)cc2)cc1 | 12.9 µM | 55.7 µM (inactive)
O=C(NCCC1=CCCCC1)c1coc(=O)c(Br)c1 | 3.01 µM | 10.7 µM
Cc1ccc(S(=O)(=O)/N=C(\CCl)N2CCOCC2)cc1 | 2.38 µM | 9.62 µM
O=C1CC(=O)OC(c2ccc([N+](=O)[O-])cc2)O1 | 2.59 µM | 1.79 µM
CNc1ccc2ncc(-c3cccc(C(=O)N(C)C)c3)n2n1 | 0.169 µM | 53.7 µM (inactive)
C=Cc1ccc(CC2(C)C(=O)Nc3ccc(-c4cccnc4)cc32)cc1 (stereo unspecified) | 3.36 µM | 41.9 µM
Cc1ccc(NS(=O)(=O)c2ccc(-c3cnc(C4CC4)o3)cc2)c(C)c1 | 14.2 µM | 32.5 µM
N#Cc1c(-c2ccc(Cl)cc2)n(O)c2ccccc12 | 2.85 µM | 3.98 µM
N=C1N(c2ccccc2)C(=S)C(=Nc2ccccc2)N1c1ccccc1 | 14.7 µM | 33 µM
Cc1nc([N+](=O)[O-])c(Sc2nc3ccccc3n2C)n1Cc1ccccc1 | 4.05 µM | 13 µM
CCN1CCN(Cc2ccc(NC(=O)c3ccc(C)c(NC(=O)C(=O)c4c[nH]c5ccccc45)c3)cc2C(F)(F)F)CC1 | 1.27 µM | 10.4 µM
COc1ccc(-n2nnnc2S(=O)(=O)Cc2ccc(C(=O)O)cc2)cc1 | 1.05 µM | 3.16 µM
CC(=O)c1ccc(-n2c(C)c(C(C)=O)c3cc(O)ccc32)cc1 | 1.34 µM | 44.5 µM
CCC(=O)c1ccc(O)c(CC=C(C)C)c1 | 5.27 µM | 60.1 µM (inactive)
c1ccc2c(c1)Nc1ccncc1S2 | 1.46 µM | 44.1 µM
c1ccc2c(-c3cncc4ccccc34)cncc2c1 | 6.1 µM | 56.9 µM (inactive)
Cc1nn(-c2cccc(Cl)c2)c2nc(C(F)(F)F)[nH]c(=O)c12 | 16.9 µM | 27.4 µM
CCOC(=O)c1ccc(-n2[nH]c(-c3ccccc3)cc2=O)cc1 | 5.35 µM | 3.77 µM
CCC1=C(CC2NCCc3ccccc32)CC2c3cc(OC)c(OC)cc3CCN2C1 (stereo unspecified) | 4.34 µM | 30 µM
COc1cc2c(c(OC)c1OC)-c1ccc(NCc3ccccc3)c(=O)cc1C(NC(C)=O)CC2 (stereo unspecified) | 15.5 µM | 45.8 µM

Compound | IC50 [1] | IC50 [2]
Cc1c(C(=O)c2cccc3ccccc23)c2cccc3c2n1[C@H](CN1CCOCC1)CO3 | 7.9 µM | 16.3 µM
C[C@@H](NC(=O)c1coc(=O)c(Br)c1)c1ccccc1 | 4.1 µM | 4.95 µM
COc1ccc(S(=O)(=O)c2c(O)c3ccc(C(=O)Nc4ccccc4Cl)cc3[nH]c2=O)cc1 | 7.32 µM | 37.8 µM
Cc1cccc(NS(=O)(=O)c2ccc(-c3cnc(C4CC4)o3)cc2)c1C | 6.37 µM | 56.2 µM (inactive)
Brc1ccc2ncnc(NCc3cccnc3)c2c1 | 2.25 µM | 66.2 µM (inactive)
CC(=O)c1ccc(Nc2ncnc3ccc(Br)cc23)cc1 | 2.18 µM | 37 µM
C=C1C(=O)[C@]23C[C@H]1CC[C@H]2[C@]1(C)[C@@H](OC(C)=O)CC[C@@](C)(C(=O)O)[C@H]1C[C@@H]3O | 0.938 µM | 8.28 µM
COc1ccccc1-c1cc(NC=O)c2ncc(-c3ccc(F)cc3)n2c1 | 4.08 µM | 46.1 µM
COc1ccc(-c2cncnc2-c2ccc(OC)cc2O)cc1 | 4.39 µM | > 79 µM (inactive)
CCC(C)Oc1cc(-c2ccnc(Nc3cccc(Cl)c3)n2)ccn1 (stereo unspecified) | 3.28 µM | 5.62 µM
CC(=O)Nc1ccc(S(=O)(=O)N2c3ccccc3C(C)=CC2(C)C)cc1 | inactive | 44.5 µM
Cc1ccc(C)c(S(=O)(=O)N(C(=O)c2ccncc2)c2ccc(OC(=O)c3ccncc3)cc2)c1 | 2.37 µM | 26.2 µM
Cc1cccc(C(=O)N[C@H](C(=O)Nc2nc3ccccc3[nH]2)C(C)C)c1 | 14.9 µM | 19.6 µM
Cc1ccc(-n2cc(-c3ccccc3)c3c(N4CCOCC4)ncnc32)cc1 | 3.49 µM | 3.85 µM
Cc1ccc(C(=O)Nc2cccc(C(F)(F)F)c2)cc1NC(=O)c1ccno1 | 0.626 µM | > 79 µM (inactive)
O=C(Nc1ccc(C(=O)N2CCOCC2)cc1)Nc1cccc(C(F)(F)F)c1 | 1.69 µM | > 79 µM (inactive)
Cc1ccc(S(=O)(=O)n2cc(-c3ccccc3)c3ccccc32)cc1 | 5.53 µM | > 79 µM (inactive)
O=c1[nH]c2ccccc2n1C1CCN(C(c2cccc3ccccc23)c2nnnn2Cc2ccccc2)CC1 (stereo unspecified) | 3.25 µM | 10 µM
O=C1N(c2ccccc2C(F)(F)F)O[C@]1(c1ccccc1)C1CCCCC1 | 10.7 µM | > 79 µM (inactive)
CCOC(=O)c1c(C)[nH]c(C(=O)N/N=C/c2ccc(Br)cc2)c1C | 14.6 µM | 45.9 µM
CN(C)c1ccc(C(C(=O)NCc2ccccc2)N(Cc2ccco2)C(=O)c2snc(C(N)=O)c2N)cc1 (stereo unspecified) | 3.08 µM | 6.97 µM

Compound | IC50 [1] | IC50 [2]
CCc1c(C)nc2ccc(Br)cc2c1SCCC#N | 3.12 µM | 24.8 µM
COc1ccc(NC(=O)Cn2ncn3nc(-c4ccc(OC)cc4)cc3c2=O)cc1 | 6.69 µM | 5.34 µM
COc1ccc2[nH]c(=O)c3c(c2c1)OC(C)(C)C=C3 | 1.67 µM | 19.8 µM
Cc1ccc(-c2c(C#N)c(N)n3c(nc4ccccc43)c2C#N)cc1 | 2.89 µM | 5.34 µM
C=CCN(CC=C)c1ncnc2[nH]ncc12 | 1.24 µM | > 79 µM (inactive)
COc1ccc(COC(=O)C2=C(C)NC(=O)NC2c2ccc(OC)cc2)cc1 (stereo unspecified) | 6.54 µM | 44.5 µM
C=C(c1ccc2nc(NC(=O)OC)[nH]c2c1)c1cccs1 | 5.04 µM | 25.6 µM
COc1ccccc1/C=C/C(=O)c1c2c(c(C)[nH]c1=O)CCCC2 | 2.94 µM | 41.6 µM
CCc1cc(-c2[nH]ncc2-c2ccc(OC)cc2)c(O)cc1O | 3.56 µM | 31 µM
COc1ccc2cc3c(N)nn(C(=O)c4ccc(F)cc4)c3nc2c1 | 1.29 µM | 36.6 µM
O=C(Nc1ccc(N2CCN(C(=O)c3ccccc3F)CC2)cc1)c1cncc(Br)c1 | 2.67 µM | 54.7 µM (inactive)
COC(=O)N1C(=O)[C@@](c2ccccc2)(C(C)C)N1C(=O)OC | 4.26 µM | 38.7 µM
O=C(NNc1ccccc1Cl)C(O)(c1cccc(C(F)(F)F)c1)c1cccc(C(F)(F)F)c1 | 13.3 µM | 7.25 µM
CC(C)(C)C(=O)/C(=C/c1ccncc1)n1cncn1 | 2.22 µM | 15.1 µM
C=C1C(=O)O[C@H]2C[C@H]1[C@@H](OC(C)=O)C/C(C)=C/CC/C(C)=C\CC[C@]2(C)O | 2 µM | 2.39 µM
CC(=O)Nc1ccc(Nc2nc(-c3sc(NC(C)=O)nc3C)cs2)cc1 | 1.69 µM | 28.4 µM
CCOC(=O)C1(C(=O)OCC)COC(=O)C1CN1Cc2cc3ccccc3nc2C1 (stereo unspecified) | 7.48 µM | 11.1 µM
Brc1cccc(CSc2nnc(-c3ccncc3)o2)c1 | 6.88 µM | > 79 µM (inactive)
CC(=O)N1CC(=O)N=C1SCC(=O)Nc1nc(C)c(-c2ccccc2)s1 | 9.21 µM | 59.7 µM (inactive)
CCN(c1ccc(OC)cc1)c1ncnc2nc[nH]c12 | 3.62 µM | > 79 µM (inactive)
